# In US10731222B2 (RNA Diagnostics Inc., priority 2013, dated 2020):
# Columns and labels:
# [1] = test system: A2780 ovarian cancer cells; assay: RNA disruption in drug-treated A2780 cells (Agilent Bioanalyzer electropherogram, RDI); type: cell-based, human; settings: for response of cells in culture to the agent: dose- and time-dependent; for effect of caspase inhibitor on docetaxel-induced RNA disruption: 10 uM inhibitor with 0.2 uM docetaxel
# Protocol: RNA was isolated from ovarian cancer cell line A2780 cells which had been treated with 10 μM docetaxel in 50% media or 20 μM epirubicin, each in 50% media. Cells were treated with the chemotherapeutic for 24 hours at 37° C. Isolated RNA was separated by microcapillary electrophoresis using the Agilent 2100 Bioanalyzer.
# Cells were plated and treated with docetaxel concentrations ranging from 0.001-40 μM for 24 to 72 hours to assess the effect on cell number, RNA content, and integrity (measured using a Bioanalyzer 2100 from Agilent Technologies, Inc.).
# A2780 cells treated for up to 72 hours with docetaxel at 0.005 uM and 0.2 uM, were analyzed for the amount of RNA per cell. RNA was isolated and electophoretically separated using an Agilent Bioanalyzer.
# RNA was isolated and electrophoretically separated on an Agilent Bioanalyzer. As shown in FIG. 24D bands appeared just below the 28S (e.g. intermediate) and 18S bands (e.g. low banding region) at 0.005 uM and peaked at 0.2 uM.
# A time course experiment was conducted in A2780 cells. Cells were treated for up to 72 hours with docetaxel at 0.005 uM and 0.2 uM. RNA was isolated and run on an Agilent Bioanalyzer.
# The effect of a caspase inhibitor on RNA integrity changes was next assessed. Cells were treated with or without docetaxel at a concentration of 0.2 uM in the presence or absence of the caspase inhibitor Q-DEVD-OPH (Biovision Laboratories) at a concentration of 10 uM.
# [2] = test system: Colon adenocarcinoma cells LS174T; assay: RNA disruption in colon adenocarcinoma cells LS174T; type: cell-based; settings: 24 hr
# Protocol: Colon adenocarcinoma cells LS174T were incubated with Sunitinib, a receptor tyrosine kinase inhibitor. RNA was isolated from the cells and analyzed using an Agilent Bioanalyzer.
# RNA was isolated from the cells and analyzed using an Agilent Bioanalyzer.
# [3] = test system: docetaxel-resistant A2780DXL cells; assay: Clonogenic assay, docetaxel-resistant cells; type: cell-based; settings: clonogenic assay
# Description: (§1) A docetaxel A2780 resistant cell line was made as described in Li et al., Int. J. Mol. Med 2004 14(20): 257-264.
# RDA like clonogenic assays can be used to identify drugs that are cytotoxic (FIG. 24C iv). […] The cell lines have widely differing sensitivity to docetaxel in a clonogenic assay, with IC50 values differing by over three orders of magnitude.
# [4] = test system: docetaxel-resistant A2780DXL cells; assay: RNA disruption in docetaxel-resistant cells; type: cell-based; settings: in combination with docetaxel
# Protocol: as §1
# A time course experiment was conducted. Sensitive parental and docetaxel resistant A2780 cells were treated with docetaxel for 24 hours. RNA was isolated and run on an Agilent Bioanalyzer.
# The a\Ability of RDA to detect potentiators of docetaxel (Dxl) sensitivity. […] Thus, RDA may be used to screen for potentiators of chemotherapy drug cytotoxicity.
# [5] = test system: Colon adenocarcinoma cells SW480; assay: RNA disruption in colon adenocarcinoma cells SW480; type: cell-based; settings: 72 hr
# Protocol: Colon adenocarcinoma cells SW480 were incubated with Epirubicin, a DNA synthesis inhibitor. RNA was isolated from the cells and analyzed using an Agilent Bioanalyzer.
# [6] = test system: locally advanced breast cancer; assay: Immunohistochemistry of tumour markers (Ki67, CD31, p53, bcl-2, caspase 3) before and 14 days after single-dose ZA, Group 1; type: in vivo, human
# Protocol: Enrolled patients received 4 mg single dose of ZA (Zometa®, Novartis, Milan, Italy) before starting any treatment (biological window of 14 days) (FIG. 9). Markers of tumor proliferation/death were tested immunohistochemically and at ATP and RNA level in tumour specimens obtained before and after ZA administration in those patients with locally advanced breast cancer (Group 1) and the count of circulating tumour cells (CTCs) by CellSearch System along with serological markers as marker of tumor dissemination were carried out in metastatic patients (Group 2).
# (§2) In patients with locally advanced disease, the biological evaluations were performed at baseline on the diagnostic biopsy and repeated after 14 days from ZA administration on a second tru-cut biopsy (Group 1) whereas in patients with bone metastatic disease, CTCs counts along with serological markers were performed before ZA administration, at 48 hours and at 14 days after treatment (Group 2) (FIG. 9).
# Immunohistochemical evaluation was performed on formalin-fixed paraffin-embedded tumor samples obtained at diagnosis and at 14th days on tru-cut. ER, PgR, overexpression of HER2 and Ki67, CD31 with p53 and bcl-2 staining were performed at the Pathology Unit of the Azienda Ospedaliera-Istituti Ospitalieri of Cremona (Italy). The immunohistochemical methodology is fully described elsewhere. The Caspase 3 immunohistochemistry was performed at the Pathology Unit of Peter MacCallum Cancer Centre (Australia); the used methodology followed that reported by others evaluating protein expression in breast tumours.
# [7] = test system: locally advanced breast cancer; assay: ATP content of tumour biopsies (ATPlite luminescence), Group 1; type: in vivo, human; settings: tru-cut after ZA; 230.93 at incisional biopsy; 24 matched pairs; p=0.79
# Protocol: ATP content was assayed as previously described using a luminescence assay system (ATPlite, PerkinElmer) according to manufacturing instructions. Briefly, frozen tumor biopsies were minced and homogenized in ice-cold lysis solution provided with the kit using a homogenizer. Membranes and cellular debris were eliminated by centrifuging at 12,000×g for 10 min at 4° C. Protein concentrations were determined by DC protein-assay (Bio-Rad Laboratories). Equal amounts of tissue proteins from each sample (30 μg/50 μl of lysis solution) were incubated with 50 μl of luciferine/luciferase substrate solution and analyzed for ATP content by using a Luminescence Counter (Enspire, PerkinElemer). ATP concentrations were calculated on the basis of an ATP standard-curve and expressed as pmol/mg protein.
# [8] = test system: locally advanced breast cancer; assay: RNA Disruption Index (RDI) of tumour samples before and 14 days after ZA, Group 1; type: in vivo, human; settings: 14 days after single ZA; baseline 0.63; 14 matched pairs; p<0.0076
# Protocol: Tumour samples were shipped in a RNA preservative to Rna Diagnostics (Sudbury, Canada) where they were sub-sectioned to reduce the amount of tissue for RNA isolation based on gross pathology. RNA was then isolated using the Qiagen miRNeasy kit from each portion of the tumour and the RNA analysed using an Agilent Bioanalyzer 2100. […] Mean RDI values were calculated for each tumour sample.
# [9] = test system: circulating tumour cells (CTCs); assay: Circulating tumor cells (CTCs) assay, CellSearch, Group 2; type: in vivo, human; settings: for median CTC/M30+ve: basal 2
# Protocol: as §2, with “Patients received a single dose of 4 mg diluted in 100 ml saline, intravenously, in about 15 mins of ZA without any other active concomitant treatments (i.e chemotherapy or endocrine therapy) (Groups 1 and 2). In” for “In”
# The enumeration of CTC in whole blood was done by the CellSearch System according to manufacturers instruction as described by Cristofanilli et al.. The identification and count of CTCs was performed using the CellSearch Analyzer, a semi-automated fluorescence-based microscopy system that permits computer-generated reconstruction of cellular images. The criteria used are round or oval morphology, a DAPI positivity, positivity for cytokeratin and negative staining for CD45. Results are expressed as number of cells/7.5 ml of blood. Quality control was maintained via the CellSearch CTC Control Kit used to standardize reagents, instruments, and operator technique.
# To quantify the fraction of apoptotic CTC, M30-positive CTC were detected integrating CTC assay with a specific mAb (M30 PEVIVA AB, Bromma, Sweden), recognizing the M30 neoepitope of cytokeratin 18 (CK18), analyzed with the fourth filter of the CellSearch System; results were expressed as the total number of CTC and M30-positive CTC per 7.5 mL of blood as described elsewhere.
# [10] = test system: cytokeratin 18 (M30, M65); assay: M30/M65 Apoptosense assay, Group 2; type: in vivo, human; settings: 14 days after ZA; baseline 335.3 U/L; p=0.039
# Protocol: Blood samples were collected from patients at the same time-point as indicated for Group 2 into the K2EDTA anticoagulant tubes, and then centrifuged at 1,500 g for 10 min to obtain plasma. Levels of M30 and M65 were measured in blood samples drawn at 8 am before starting ZA administration and thereafter at 48 hours and at 14 days after the initial treatment (FIG. 9).
# M30 and M65 measurements were tested in triplicate accordingly to the manufacturers' instructions (PEVIVA AB, Bromma, Sweden) as previously described in detail.
# The M30 is a biomarker assay for the quantitative determination of caspase-cleaved cytokeratin 18 (CK18) released from apoptotic carcinoma cells into blood and may estimate the tumour response to the treatment. Total CK18 (cleaved and non cleaved) is detected by M65. The levels of M30 and M65 were determined on blood samples of metastatic breast cancer patients (Group 2) collected at baseline, at 48 hours and at 14 days after ZA administration at the same time point of CTCs evaluation to assess apoptosis and cell death induced by the treatment. […] M65 levels were statistically significant higher after drug administration (14 days) when compared to the baseline (370.69 U/L versus 335.3 U/L; range 174.2-1646.5 versus 113.7-596.4; p=0.039).
# [11] = Treatment tolerability of single-dose ZA; type: in vivo, human
# Protocol: as §2, with “Patients received a single dose of 4 mg diluted in 100 ml saline, intravenously, in about 15 mins of ZA without any other active concomitant treatments (i.e chemotherapy or endocrine therapy) (Groups 1 and 2). In” for “In”
# Patients were evaluated by physical examination, and blood samples were obtained for laboratory analysis.
# [12] = test system: breast cancer T2-4, N 0-1, M0; assay: Early response studies: RNA Disruption (RDI) 15 days after initiation of therapy; type: in vivo, human
# Description: The Limit of Detection for RDI s RDI=0.3. RDI=1.5, 5 times the Level of Detection, was used as a provisional baseline cut off between nonresponders and responders.
# [13] = cited from earlier work
compound,measurement,setting,value
N.N.O=C([O-])C1(C(=O)[O-])CCC1.[Pt+2] [carboplatin],response of cells in culture to the agent,[1],RNA disruption
CC(=O)O[C@H]1C(=O)[C@@]2(C)[C@H]([C@H](OC(=O)c3ccccc3)[C@]3(O)C[C@H](OC(=O)[C@H](O)[C@@H](NC(=O)c4ccccc4)c4ccccc4)C(C)=C1C3(C)C)[C@]1(OC(C)=O)CO[C@@H]1C[C@@H]2O [paclitaxel],response of cells in culture to the agent,[1],RNA disruption
CCN(CC)CCNC(=O)c1c(C)[nH]c(/C=C2\C(=O)Nc3ccc(F)cc32)c1C [Sunitinib],concentration at which RNA Disruption is evident,[2],54 mM
Cyclosporine A,effect on docetaxel sensitivity,[3],restores sensitivity to docetaxel
same,effect on docetaxel-induced RNA disruption (RDI),[4],restored docetaxel's ability to induce RNA disruption
COc1cccc2c1C(=O)c1c(O)c3c(c(O)c1C2=O)C[C@@](O)(C(=O)CO)C[C@@H]3O[C@H]1C[C@H](N)[C@@H](O)[C@H](C)O1 [epirubicin],electropherogram pattern,"[1]; 20 μM in 50% media, 24 hours, 37° C.",intermediate bands between the 18S and 28S peaks
same,response of cells in culture to the agent,[1],RNA disruption
same,concentration at which RNA Disruption is evident,[5],0.5 mM
"O=P(O)(O)C(O)(Cn1ccnc1)P(=O)(O)O [ZA, zoledronic acid]",specimens with increased bcl-2,[6]; 1 of 31,3.2%
same,specimens with increased p53,[6]; 1 of 31,3.2%
same,specimens with decreased p53,[6]; 3 of 31,9.7%
same,patients with stable Ki67 expression,"[6]; 5 of 33 patients, 14 days",15.2%
same,patients with increase in Ki67 expression,"[6]; 6 of 33 patients, 14 days",18.2%
same,patients with decrease in Ki67 expression,"[6]; 22 of 33 patients, 14 days",66.6%
same,specimens with unchanged p53,[6]; 27 of 31,87.1%
same,specimens with decreased bcl-2,[6]; 30 of 31,96.8%
same,median Ki67,"[6]; 14 days after ZA infusion, basal 18%, n=33, p=0.0032",16%
same,bcl-2 expression (median),"[6]; 14 days, baseline 100%, p<0.00001",40%
same,median CD31 expression,"[6]; after treatment (14 days), basal 27%, p=0.0001",16%
same,average ATP value,[7],216.57 pmol/mg protein
same,RDI level,[8],1.21
same,median alive CTC,"[9]; 48 hours after ZA infusion, basal 12, p=0.0012",4 cells/7.5 ml of blood
same,median CTC/M30+ve,"[9]; 48 hours, p=0.7065",2 cells/7.5 ml of blood
same,median CTC/M30+ve,"[9]; 14 days, p=0.018",3 cells/7.5 ml of blood
same,M65 level,[10],370.69 U/L
same,"levels of bone-turnover markers (calcium, PTH, BALP, VIT-D3(1-25))",[11]; in vivo,did not lead significant difference
same,osteonecrosis of the jaw or other significant adverse events,[11]; in vivo,No patient developed
same,tolerability,[11]; single 4 mg i.v. dose,well tolerated
same,mean serum creatinine level,[11]; with treatment,did not vary
same,Patients Responding (RDI above Baseline RDI = 1.5),[12],8 patients
same,"RDI Range, Responding Patients",[12],1.8-8.9
same,plasma concentration relative to Cmax,[13]; 24 h post-dose,< 1 % of Cmax
same,dose retained in the skeleton or in fat tissue,[13]; in vivo,60%
same,dose excreted unmetabolized in the urine,[13]; within 24 hours after administration,up to 41%
Q-DEVD-OPH,effect of caspase inhibitor on docetaxel-induced RNA disruption,[1],reduces the loss of 28S and 18S bands at 72 hr
same,effect of caspase inhibitor on docetaxel-induced RNA disruption,[1]; listed as Q-DEVD-Oph,significantly reduced RNA disruption
